Source: patent US20080247991A1, “Solution Additives For the Attenuation of Protein Aggregation” (priority 2004, published 2008)

Experiments:
[1] = molecular target: T1, insulin binding to immobilized monoclonal anti-insulin (Homo sapiens, UniProt P01308); assay: Surface plasmon resonance (Biacore 3000): globular protein association/dissociation kinetics in buffer with additive; settings: for ka / kd: pH 7.4, estimated error 15%
T1 construct: purchased Sigma-Aldrich (insulin); Fitzgerald Industries (antibody) I8530; 10-130 clone M322214
T1 sequence (P01308 25-54 limits assumed): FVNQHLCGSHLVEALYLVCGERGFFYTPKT
T1 sequence (P01308 90-110 limits assumed): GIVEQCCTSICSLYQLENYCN
Procedure: Surface plasmon resonance experiments were conducted to measure the effect of added ArgHCl and GuHCl on the kinetics of globular protein association and dissociation versus an equimolar salt control (NaCl). The data set shown in the figure is a composition of 8 different concentration runs plus replicates, for a total of 16 runs. At t=140 sec, the flow cell with immobilized anti-insulin was exposed to a constant concentration of insulin in the range of 2 to 188 nM for 3 minutes. During this 3 minutes, the antibody and antigen were free to associate and dissociate. The net reaction is the binding of free antigen in solution, resulting in an increase in detector response proportional to the mass of antigen bound. At t=320 sec, the insulin concentration in the flow cell inlet is returned to zero, and the bound antigen then dissociates from the surface. All 16 runs were simultaneously fit to a binding model by minimizing the squared residuals to yield the association and dissociation rate constants, ka and kd. This process was repeated to yield association, dissociation, and equilibrium constant data for the model systems in various buffers as shown in Table 4.
Globular Protein Association Kinetics—Protein association and dissociation rate constants, ka and kd, were measured for globular proteins via surface plasmon resonance on a Biacore 3000 instrument. Monoclonal anti-insulin was immobilized on a Biacore CM5 sensor chip via amine coupling. The amount of immobilized antibody was selected to give a detector response in the range of 50-100 RU when antigen was present. A reference surface was created by activating and deactivating the surface without coupling an antibody to it.
Different concentrations of insulin in the nanomolar range ([…]) were prepared by dilution and injected serially into the antibody-containing and reference flow cells. […] Pocker, Y. & Biswas, Subhasis, B. (1981) Biochemistry 20, 4354-4361. The dissociation rate was sufficiently fast in buffer that a regeneration buffer was not required. Kinetic constants were extracted by simultaneous fitting of ka and kd to each set of sensorgrams using a 1:1 kinetic model in the BIAevaluation 3.0 software package.

carbonic anhydrase II [2] = molecular target: T2, carbonic anhydrase II (Bos taurus, UniProt P00921); assay: Size exclusion HPLC of multimers formed during refolding of carbonic anhydrase; design: purchased Sigma-Aldrich C2522; species or system bovine; settings: for A2, percentage of total carbonic anhydrase / A3-5, percentage of total carbonic anhydrase / A6-15, percentage of total carbonic anhydrase / M (monomer), percentage of total carbonic anhydrase / Large multimers, percentage of total carbonic anhydrase: 0.5 M additive; for Large multimers, percentage of total carbonic anhydrase: inferred by difference
T2 sequence (P00921 whole entry): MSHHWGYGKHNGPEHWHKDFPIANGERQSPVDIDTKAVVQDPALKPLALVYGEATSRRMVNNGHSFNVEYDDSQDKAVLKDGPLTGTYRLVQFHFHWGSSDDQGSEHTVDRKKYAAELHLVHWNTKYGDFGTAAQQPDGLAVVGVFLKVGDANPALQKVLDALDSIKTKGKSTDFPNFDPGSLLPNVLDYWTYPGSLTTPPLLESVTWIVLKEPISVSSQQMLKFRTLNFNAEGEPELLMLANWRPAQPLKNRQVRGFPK
Procedure: Size exclusion HPLC experiments were performed to analyze the distribution of multimers formed during refolding. CA was refolded with three different additives, 0.5M NaCl, 0.5M GuHCl, and 0.5M ArgHCl, relative to a base refolding buffers of 0.5M GuHCl, as done in the esterase activity assays above. […] Other than this protein concentration difference, these experiments allow direct comparison of how an additional 0.5M of the three different cations affect refolding.
The samples were not filtered prior to introduction into the HPLC column.
Size Exclusion HPLC—Size exclusion HPLC (SE-HPLC) experiments were performed on a Beckman System Gold HPLC instrument equipped with a Tosohaas G3000SWXL size exclusion column and a UV detector. 30 μl samples were introduced to the column by a constant flow of 1 ml/min mobile phase. Each sample ran for 15 minutes, with carbonic anhydrase eluting between 6 and 10 minutes, depending on its molecular weight and buffer. […] A mixture of lysozyme, carbonic anhydrase, and bovine serum albumin (monomer and dimer) was used as a standard to calibrate molecular weight to retention time. Using this calibration curve and the breakthrough time of the column, the largest multimer that could pass through the column was a 15-mer. When significant mass was missing from a chromatogram, large multimers were quantitated by difference. The presence of large multimers was confirmed via turbidity or dynamic light scattering for each buffer. The instrument was cleaned with 30 μl injections of 4M GuHCl, a denaturing concentration found to dissociate and elute precipitates and large soluble carbonic anhydrase multimers.

carbonic anhydrase II [3] = molecular target: T2, carbonic anhydrase II; assay: Carbonic anhydrase refolding yield by esterase activity (pNPA); settings: for α/α0 / α (refolding selectivity parameter, kr/kagg): 0.5 M additive, base buffer 0.5 M GuHCl; for α/α0: relative to 0.5M NaCl; for α (refolding selectivity parameter, kr/kagg): fit to second-order aggregation model; for order of yield of active protein as a function of buffer additive: equimolar (0.5M) additives
Procedure: Esterase activity assays were performed as a function of initial unfolded protein concentration and buffer composition to determine how equimolar concentrations of NaCl, ArgHCl, and GuHCl each affected refolding yield (FIG. 16).
High concentrations of carbonic anhydrase (>300 μM) were denatured in 6M GuHCl and equilibrated overnight. Refolding was initiated by dilution to 0.5M GuHCl with 50 mM Tris-HCl buffer, pH 7.5. This final GuHCl concentration was selected because it yields a mixture of active, refolded protein and aggregates. The distribution of this mixture was analyzed via esterase activity, size exclusion HPLC, and dynamic light scattering as described above.
Carbonic Anhydrase Esterase Activity—Esterase activity of carbonic anhydrase was assessed using para-nitrophenylacetate (pNPA) as the substrate as described previously. […] Briefly, 10 μl samples of carbonic anhydrase solution were added to 500 μl of Tris-HCl, pH 7.5 and 50 μl of 50 mM pNPA in acetonitrile. Kinetics of hydrolysis of pNPA was observed by the increase in absorbance at 400 nm due to the appearance of the paranitrophenolate ion (pNP^−). In all cases, the observed hydrolysis rate in absorbance units per second (AU/s) under these conditions was constant (pseudo-zero order). Hydrolysis rates were corrected for the hydrolysis of pNPA by the buffer for each type of buffer used. […] The active protein concentration data was reproducible to within 5-8% in replicated experiments.

[4] = 0.5 M additive, relative to HBS-EP + 0.5 M NaCl
[5] = 0.5M, relative to 0.5M NaCl control

SMILES: Cl.N=C(N)NCCC[C@H](N)C(=O)O [ArgHCl, arginine hydrochloride]
- ka ([1]; 0.5 M additive in HBS-EP): 12000 M⁻¹ s⁻¹
- kd ([1]; 0.5 M additive in HBS-EP): 0.022 s⁻¹
- Kd ([1]; 0.5 M additive in HBS-EP, KD ≡ kd/ka): 1800 nM
- ka/ka0 [1, 4]: 0.27
- kd/kd0 [1, 4]: 1.6
- effect on association rate of insulin and anti-insulin [1, 5]: slowed
- effect on dissociation rate of insulin and anti-insulin [1, 5]: accelerated
- yield of monomeric protein (carbonic anhydrase II [2]; 0.5M added, versus 0.5M NaCl): significantly increased
- average aggregate molecular weight (ignoring the monomer) (carbonic anhydrase II [2]; 0.5M additive, compared among the three buffers): lowest
- A2, percentage of total carbonic anhydrase (carbonic anhydrase II [2]; time 2 min, [U]0 = 20 μM): 30%
- A3-5, percentage of total carbonic anhydrase (carbonic anhydrase II [2]; time 2 min, [U]0 = 20 μM): 25%
- A6-15, percentage of total carbonic anhydrase (carbonic anhydrase II [2]; time 2 min, [U]0 = 20 μM): 21%
- M (monomer), percentage of total carbonic anhydrase (carbonic anhydrase II [2]; time 2 min, [U]0 = 20 μM): 22%
- Large multimers, percentage of total carbonic anhydrase (carbonic anhydrase II [2]; time 2 min, [U]0 = 20 μM): 2%
- A2, percentage of total carbonic anhydrase (carbonic anhydrase II [2]; time 20 min, [U]0 = 20 μM): 7%
- A3-5, percentage of total carbonic anhydrase (carbonic anhydrase II [2]; time 20 min, [U]0 = 20 μM): 14%
- A6-15, percentage of total carbonic anhydrase (carbonic anhydrase II [2]; time 20 min, [U]0 = 20 μM): 26%
- M (monomer), percentage of total carbonic anhydrase (carbonic anhydrase II [2]; time 20 min, [U]0 = 20 μM): 54%
- Large multimers, percentage of total carbonic anhydrase (carbonic anhydrase II [2]; time 20 min, [U]0 = 20 μM): −1%
- A2, percentage of total carbonic anhydrase (carbonic anhydrase II [2]; time 38 min, [U]0 = 20 μM): 4%
- A3-5, percentage of total carbonic anhydrase (carbonic anhydrase II [2]; time 38 min, [U]0 = 20 μM): 11%
- A6-15, percentage of total carbonic anhydrase (carbonic anhydrase II [2]; time 38 min, [U]0 = 20 μM): 24%
- M (monomer), percentage of total carbonic anhydrase (carbonic anhydrase II [2]; time 38 min, [U]0 = 20 μM): 62%
- Large multimers, percentage of total carbonic anhydrase (carbonic anhydrase II [2]; time 38 min, [U]0 = 20 μM): −1%
- A2, percentage of total carbonic anhydrase (carbonic anhydrase II [2]; time 1500 min, [U]0 = 20 μM): 0%
- A3-5, percentage of total carbonic anhydrase (carbonic anhydrase II [2]; time 1500 min, [U]0 = 20 μM): 0%
- A6-15, percentage of total carbonic anhydrase (carbonic anhydrase II [2]; time 1500 min, [U]0 = 20 μM): 19%
- M (monomer), percentage of total carbonic anhydrase (carbonic anhydrase II [2]; time 1500 min, [U]0 = 20 μM): 80%
- Large multimers, percentage of total carbonic anhydrase (carbonic anhydrase II [2]; time 1500 min, [U]0 = 20 μM): 1%
- α/α0 (carbonic anhydrase II [3]): 5.0
- α (refolding selectivity parameter, kr/kagg) (carbonic anhydrase II [3]): 47 µM
- order of yield of active protein as a function of buffer additive (carbonic anhydrase II [3]): NaCl<<ArgHCl<GuHCl

SMILES: [Cl-].[Na+] [NaCl, sodium chloride]
- ka ([1]; 0.5 M additive in HBS-EP): 44000 M⁻¹ s⁻¹
- kd ([1]; 0.5 M additive in HBS-EP): 0.014 s⁻¹
- A2, percentage of total carbonic anhydrase (carbonic anhydrase II [2]; time 2 min, [U]0 = 5 μM): 0%
- A3-5, percentage of total carbonic anhydrase (carbonic anhydrase II [2]; time 2 min, [U]0 = 5 μM): 0%
- A6-15, percentage of total carbonic anhydrase (carbonic anhydrase II [2]; time 2 min, [U]0 = 5 μM): 0%
- M (monomer), percentage of total carbonic anhydrase (carbonic anhydrase II [2]; time 2 min, [U]0 = 5 μM): 56%
- Large multimers, percentage of total carbonic anhydrase (carbonic anhydrase II [2]; time 2 min, [U]0 = 5 μM): 44%
- A2, percentage of total carbonic anhydrase (carbonic anhydrase II [2]; time 20 min, [U]0 = 5 μM): 0%
- A3-5, percentage of total carbonic anhydrase (carbonic anhydrase II [2]; time 20 min, [U]0 = 5 μM): 0%
- A6-15, percentage of total carbonic anhydrase (carbonic anhydrase II [2]; time 20 min, [U]0 = 5 μM): 0%
- M (monomer), percentage of total carbonic anhydrase (carbonic anhydrase II [2]; time 20 min, [U]0 = 5 μM): 56%
- Large multimers, percentage of total carbonic anhydrase (carbonic anhydrase II [2]; time 20 min, [U]0 = 5 μM): 44%
- A2, percentage of total carbonic anhydrase (carbonic anhydrase II [2]; time 38 min, [U]0 = 5 μM): 0%
- A3-5, percentage of total carbonic anhydrase (carbonic anhydrase II [2]; time 38 min, [U]0 = 5 μM): 0%
- A6-15, percentage of total carbonic anhydrase (carbonic anhydrase II [2]; time 38 min, [U]0 = 5 μM): 0%
- M (monomer), percentage of total carbonic anhydrase (carbonic anhydrase II [2]; time 38 min, [U]0 = 5 μM): 56%
- Large multimers, percentage of total carbonic anhydrase (carbonic anhydrase II [2]; time 38 min, [U]0 = 5 μM): 44%
- α/α0 (carbonic anhydrase II [3]): 1
- α (refolding selectivity parameter, kr/kagg) (carbonic anhydrase II [3]): 9.3 µM
- order of yield of active protein as a function of buffer additive (carbonic anhydrase II [3]): NaCl<<ArgHCl<GuHCl
